Among the data in ChEMBL document CHEMBL1137456, “The synthesis and biological activity of pentafluorosulfanyl analogs of fluoxetine, fenfluramine, and norfenfluramine” (Bioorg Med Chem, 2007) are inhibition values, retold here.

The inhibition is the relative decrease from the control value, in per cent.

Holding throughout (format): cell-based
What all share (settings): COS-7

Test [1] deals with 5-hydroxytryptamine receptor 1B (Homo sapiens) (UniProt P28222). The experiment in a line: Inhibition of human 5HT1B expressed in COS7 cells at 10 uM.
Chain of 5-hydroxytryptamine receptor 1B (Homo sapiens) (P28222 whole entry): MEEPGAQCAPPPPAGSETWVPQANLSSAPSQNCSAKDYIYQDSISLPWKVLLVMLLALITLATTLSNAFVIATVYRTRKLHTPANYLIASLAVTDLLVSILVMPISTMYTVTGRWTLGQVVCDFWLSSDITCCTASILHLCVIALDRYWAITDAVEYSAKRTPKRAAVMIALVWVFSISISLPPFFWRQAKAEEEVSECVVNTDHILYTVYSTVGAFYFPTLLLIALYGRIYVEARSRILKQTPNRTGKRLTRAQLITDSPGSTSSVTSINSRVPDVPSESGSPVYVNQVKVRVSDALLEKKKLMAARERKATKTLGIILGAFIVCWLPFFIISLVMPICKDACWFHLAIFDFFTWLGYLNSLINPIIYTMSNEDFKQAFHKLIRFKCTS
In test [2] the target is T1, 5-hydroxytryptamine receptor 2C (Rattus norvegicus) (UniProt P08909).
T1 sequence (whole entry): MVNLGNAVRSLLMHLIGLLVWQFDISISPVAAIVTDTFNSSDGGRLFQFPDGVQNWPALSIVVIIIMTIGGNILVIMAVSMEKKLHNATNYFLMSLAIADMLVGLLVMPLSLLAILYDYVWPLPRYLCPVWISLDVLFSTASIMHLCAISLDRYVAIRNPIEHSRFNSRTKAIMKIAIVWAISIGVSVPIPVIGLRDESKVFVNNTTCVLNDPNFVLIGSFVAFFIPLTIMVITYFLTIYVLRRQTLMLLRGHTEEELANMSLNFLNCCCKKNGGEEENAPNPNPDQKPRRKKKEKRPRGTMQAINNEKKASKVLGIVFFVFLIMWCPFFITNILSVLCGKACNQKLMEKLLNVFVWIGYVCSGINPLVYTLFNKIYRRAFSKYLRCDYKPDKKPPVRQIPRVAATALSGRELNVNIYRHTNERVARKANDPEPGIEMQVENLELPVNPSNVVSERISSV
Nature of the test: Inhibition of rat 5HT2C expressed in COS7 cells at 10 uM.

For test [3], the target named is 5-hydroxytryptamine receptor 1E (Homo sapiens) (UniProt P28566). The experiment in a line: Inhibition of human 5HT1E expressed in COS7 cells at 10 uM.
Chain of 5-hydroxytryptamine receptor 1E (Homo sapiens) (P28566 whole entry): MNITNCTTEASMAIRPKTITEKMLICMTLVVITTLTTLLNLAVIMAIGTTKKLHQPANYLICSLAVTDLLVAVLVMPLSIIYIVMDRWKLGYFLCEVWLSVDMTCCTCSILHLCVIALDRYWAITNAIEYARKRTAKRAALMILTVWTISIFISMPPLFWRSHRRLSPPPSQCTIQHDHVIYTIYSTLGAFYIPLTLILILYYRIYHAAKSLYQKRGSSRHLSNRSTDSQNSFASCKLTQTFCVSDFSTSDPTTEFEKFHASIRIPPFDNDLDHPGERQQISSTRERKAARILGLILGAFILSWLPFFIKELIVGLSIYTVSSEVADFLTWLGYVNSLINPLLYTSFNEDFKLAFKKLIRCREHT
Test [4] concerns the target 5-hydroxytryptamine receptor 2B (Homo sapiens) (UniProt P41595). The experiment in a line: Inhibition of human 5HT2B expressed in COS7 cells at 10 uM.
The target in test [5] is 5-hydroxytryptamine receptor 2A (Rattus norvegicus) (UniProt P14842). The experiment in a line: Inhibition of rat 5HT2A expressed in COS7 cells at 10 uM.
Chain of 5-hydroxytryptamine receptor 2A (Rattus norvegicus) (P14842 whole entry): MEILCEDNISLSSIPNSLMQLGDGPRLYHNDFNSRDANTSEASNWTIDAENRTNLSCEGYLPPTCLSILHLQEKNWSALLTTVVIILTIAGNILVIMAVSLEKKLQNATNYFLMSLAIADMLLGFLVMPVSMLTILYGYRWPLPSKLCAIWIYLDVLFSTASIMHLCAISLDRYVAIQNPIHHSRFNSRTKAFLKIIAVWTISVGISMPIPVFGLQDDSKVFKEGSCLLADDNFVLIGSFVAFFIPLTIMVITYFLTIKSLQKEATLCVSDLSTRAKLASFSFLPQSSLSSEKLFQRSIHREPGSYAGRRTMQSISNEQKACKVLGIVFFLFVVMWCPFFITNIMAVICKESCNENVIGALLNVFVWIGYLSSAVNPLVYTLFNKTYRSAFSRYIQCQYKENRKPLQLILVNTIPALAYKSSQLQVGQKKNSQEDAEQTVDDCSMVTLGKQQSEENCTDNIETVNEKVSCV
In test [6] the target is 5-hydroxytryptamine receptor 5A (Homo sapiens) (UniProt P47898). The experiment in a line: Inhibition of human 5HT5A expressed in COS7 cells at 10 uM.
Chain of 5-hydroxytryptamine receptor 5A (Homo sapiens) (P47898 whole entry): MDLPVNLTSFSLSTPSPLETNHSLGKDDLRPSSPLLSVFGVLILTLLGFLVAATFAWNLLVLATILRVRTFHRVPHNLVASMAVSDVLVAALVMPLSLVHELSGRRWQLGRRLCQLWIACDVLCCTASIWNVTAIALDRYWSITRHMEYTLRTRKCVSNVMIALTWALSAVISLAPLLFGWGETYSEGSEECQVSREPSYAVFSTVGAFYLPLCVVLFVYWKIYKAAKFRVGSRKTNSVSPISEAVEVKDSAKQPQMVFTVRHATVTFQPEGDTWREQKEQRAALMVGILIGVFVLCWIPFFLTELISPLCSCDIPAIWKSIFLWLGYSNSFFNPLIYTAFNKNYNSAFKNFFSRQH
In test [7] the target is T2, 5-hydroxytryptamine receptor 3A (Homo sapiens) (UniProt P46098).
T2 sequence (whole entry): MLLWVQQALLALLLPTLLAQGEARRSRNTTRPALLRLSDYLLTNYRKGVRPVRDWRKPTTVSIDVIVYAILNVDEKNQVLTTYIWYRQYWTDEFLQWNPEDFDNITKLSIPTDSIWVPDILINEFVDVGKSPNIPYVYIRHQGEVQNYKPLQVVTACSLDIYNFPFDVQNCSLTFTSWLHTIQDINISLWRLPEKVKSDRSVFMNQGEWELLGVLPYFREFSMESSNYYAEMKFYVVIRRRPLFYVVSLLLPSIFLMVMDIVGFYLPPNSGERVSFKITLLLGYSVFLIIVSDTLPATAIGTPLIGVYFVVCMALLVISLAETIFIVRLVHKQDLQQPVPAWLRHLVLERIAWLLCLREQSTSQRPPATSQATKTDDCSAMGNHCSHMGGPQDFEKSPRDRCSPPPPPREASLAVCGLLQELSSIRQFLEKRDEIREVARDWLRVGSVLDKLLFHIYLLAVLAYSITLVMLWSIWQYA
The experiment in a line: Inhibition of human 5HT3 expressed in COS7 cells at 10 uM.

The target of test [8] is T3, 5-hydroxytryptamine receptor 1A (Homo sapiens) (UniProt P08908).
T3 sequence (whole entry): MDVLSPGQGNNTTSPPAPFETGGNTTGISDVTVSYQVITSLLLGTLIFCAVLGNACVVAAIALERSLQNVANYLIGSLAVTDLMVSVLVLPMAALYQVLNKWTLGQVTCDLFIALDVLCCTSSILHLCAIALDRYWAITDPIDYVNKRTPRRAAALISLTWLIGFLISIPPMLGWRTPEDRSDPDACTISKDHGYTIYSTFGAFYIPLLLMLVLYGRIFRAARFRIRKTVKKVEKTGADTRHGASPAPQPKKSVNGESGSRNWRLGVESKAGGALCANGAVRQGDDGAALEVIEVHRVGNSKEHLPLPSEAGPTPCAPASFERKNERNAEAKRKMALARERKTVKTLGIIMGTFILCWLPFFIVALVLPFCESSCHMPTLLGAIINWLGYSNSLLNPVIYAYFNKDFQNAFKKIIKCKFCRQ
Nature of the test: Inhibition of human 5HT1A expressed in COS7 cells at 10 uM.

Test [9] concerns the target 5-hydroxytryptamine receptor 6 (Homo sapiens) (UniProt P50406). The experiment in a line: Inhibition of human 5HT6 expressed in COS7 cells at 10 uM.
Test [10] concerns the target 5-hydroxytryptamine receptor 7 (Homo sapiens) (UniProt P34969). Nature of the test: Inhibition of human 5HT7 expressed in COS7 cells at 10 uM.
In test [11] the target is 5-hydroxytryptamine receptor 1D (Homo sapiens) (UniProt P28221). The experiment in a line: Inhibition of human 5HT1D expressed in COS7 cells at 10 uM.
Chain of 5-hydroxytryptamine receptor 1D (Homo sapiens) (P28221 whole entry): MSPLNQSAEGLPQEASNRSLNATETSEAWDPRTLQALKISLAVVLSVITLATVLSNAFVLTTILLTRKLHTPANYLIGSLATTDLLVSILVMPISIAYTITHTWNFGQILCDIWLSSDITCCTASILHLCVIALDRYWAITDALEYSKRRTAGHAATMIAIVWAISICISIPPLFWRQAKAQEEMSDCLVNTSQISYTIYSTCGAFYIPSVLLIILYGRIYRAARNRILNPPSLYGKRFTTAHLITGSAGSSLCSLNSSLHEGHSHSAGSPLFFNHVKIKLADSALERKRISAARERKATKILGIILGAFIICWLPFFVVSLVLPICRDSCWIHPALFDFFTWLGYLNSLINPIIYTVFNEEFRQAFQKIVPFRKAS

Chain of 5-hydroxytryptamine receptor 2B (Homo sapiens) (P41595 whole entry): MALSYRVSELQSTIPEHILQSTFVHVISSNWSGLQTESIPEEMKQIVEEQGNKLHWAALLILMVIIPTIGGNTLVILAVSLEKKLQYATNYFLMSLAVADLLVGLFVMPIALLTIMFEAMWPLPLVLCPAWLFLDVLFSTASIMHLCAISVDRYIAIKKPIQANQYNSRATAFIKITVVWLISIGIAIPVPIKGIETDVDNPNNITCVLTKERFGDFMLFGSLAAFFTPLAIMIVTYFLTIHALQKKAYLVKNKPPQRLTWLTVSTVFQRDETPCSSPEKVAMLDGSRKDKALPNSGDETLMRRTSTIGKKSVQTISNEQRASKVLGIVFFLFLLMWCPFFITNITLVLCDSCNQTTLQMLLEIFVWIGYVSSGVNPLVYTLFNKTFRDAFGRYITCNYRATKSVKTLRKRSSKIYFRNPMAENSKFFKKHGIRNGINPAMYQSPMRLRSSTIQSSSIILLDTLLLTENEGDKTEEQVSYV
Chain of 5-hydroxytryptamine receptor 7 (Homo sapiens) (P34969 whole entry): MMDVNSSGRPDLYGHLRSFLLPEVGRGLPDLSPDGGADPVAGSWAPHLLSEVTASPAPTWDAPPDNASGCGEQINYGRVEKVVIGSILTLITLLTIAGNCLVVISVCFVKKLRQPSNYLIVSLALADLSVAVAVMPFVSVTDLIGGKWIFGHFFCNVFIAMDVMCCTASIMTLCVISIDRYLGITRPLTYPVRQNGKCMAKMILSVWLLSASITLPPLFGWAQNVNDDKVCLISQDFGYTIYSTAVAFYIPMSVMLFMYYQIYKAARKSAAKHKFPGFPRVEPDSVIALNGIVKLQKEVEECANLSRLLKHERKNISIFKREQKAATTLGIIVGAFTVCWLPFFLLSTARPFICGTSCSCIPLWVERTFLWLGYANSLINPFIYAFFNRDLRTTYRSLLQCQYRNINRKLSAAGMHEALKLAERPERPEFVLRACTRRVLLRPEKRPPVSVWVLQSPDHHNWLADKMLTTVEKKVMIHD
Chain of 5-hydroxytryptamine receptor 6 (Homo sapiens) (P50406 whole entry): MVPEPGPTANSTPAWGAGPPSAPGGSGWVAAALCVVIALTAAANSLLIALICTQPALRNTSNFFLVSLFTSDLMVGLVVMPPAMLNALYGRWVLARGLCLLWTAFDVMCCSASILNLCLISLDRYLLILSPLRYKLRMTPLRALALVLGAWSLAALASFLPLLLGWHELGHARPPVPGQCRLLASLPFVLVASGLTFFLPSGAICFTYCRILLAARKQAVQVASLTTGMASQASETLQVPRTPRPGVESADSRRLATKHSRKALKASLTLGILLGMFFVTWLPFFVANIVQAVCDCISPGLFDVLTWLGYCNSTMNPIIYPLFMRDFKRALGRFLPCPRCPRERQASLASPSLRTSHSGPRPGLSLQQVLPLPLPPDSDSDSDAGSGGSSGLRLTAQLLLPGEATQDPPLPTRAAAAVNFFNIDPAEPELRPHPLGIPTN

`CCNC(C)Cc1cccc(S(F)(F)(F)(F)F)c1` (stereo not drawn): the inhibition in [1] was 63.5%; in [2] it was 72.8%; in [3] it was 7.3%; in [4], 85.3%; in test [5], 53.2%; in test [6], 62.7%. The inhibition amounted to 14.6% in test [7]; 85.5% in test [8]; 50% in [9]; 50% in test [10]; 15.2% in [11].

`CNCCC(Oc1ccc(S(F)(F)(F)(F)F)cc1)c1ccccc1` (stereo not drawn): the inhibition in test [1] worked out at 3.4%; in [2], 75.8%; in test [3], 77.8%; in test [4], 71.9%; in [5] it was 97.3%; in [6], 25%. The inhibition in test [7] is 6.8%; in test [8], -3%; in test [9], 1.5%; in [10], 12%; in test [11] it was 12.7%.

Turning to `CC(N)Cc1cccc(S(F)(F)(F)(F)F)c1` (stereo not drawn), the inhibition in [1] worked out at 62.9%; in test [2], 94.6%; in test [3], 23.4%; in test [4] it was 89.6%; in [5] it was 85.9%; in [6], 31.3%. Moreover, the inhibition was -6.1% in test [7]; 50% in [8]; 50% in test [9]; 50% in test [10]; 73.7% in [11].
